Assay results as given in patent US20250059264A1, “METHOD OF TREATING STROKE” (AlaMab Therapeutics, Inc., priority 2023, published 2025).

Experiments:
[1] = tested on: rat model of stroke induced by middle cerebral artery occlusion (MCAO); test: Cerebral infarct volume by TTC staining (Example 3); type: in vivo, SD rats; conditions: 10 mg/kg (table label) i.v. Bid from 30 min after infarction, 48 h after reperfusion
Method: (§1) The administration of the respective treatments was started 30 minutes after the MCAO procedure of the rats.
(§2) Seventy-two (72) SD rats received behavioral training after adaptive feeding period and before the operation to establish stroke models. The behavioral training included beam-walking, grip and rotarod tests. The experimental rats were then randomly divided into 6 groups according to the body weight, with 12 rats in each test group as described in Table 15.
(§3) The rats were fasted overnight before modeling and were anesthetized with isoflurane. Right middle cerebral artery occlusion (MCAO) was induced in each rat using the intraluminal filament technique to mimic focal cerebral ischemic stroke. After 2 hrs, reperfusion was allowed by removing the occlusion.
(§4) Administration of each treatment was performed 0.5 h after the infarction. The rats were scored by the Longa method at 24-hours post-procedure. The neurological function was evaluated at 24-hr and 48-hr after reperfusion, and was assessed by beam-walking, grip strength, and rotarod tests. At 48 h after reperfusion, the whole brain tissue of all rats was harvested to assess the cerebral infarct area by TTC staining, as well as to measure brain volume and brain water content, two indicators of acute cerebral edema.

[2] = tested on: mouse model of stroke induced by middle cerebral artery occlusion (MCAO); test: Rotarod test, time of treatment (Example 2); type: in vivo, ICR mice
Method: (§5) The administration of 10 mg/kg butylphthalide and 50 mg/kg ALMB-0166 was started 30 minutes, 2 hours, or 6 hours after the MCAO procedure of the mice. Ninety-six (96) ICR mice received behavioral training after adaptive feeding period and before the operation to establish stroke models. The behavioral training included beam-walking and rotarod test. The experimental mice were then randomly divided into 8 groups according to the values of the body weight, with 12 mice in each test group as described in Table 1. The mice were fasted overnight before modeling and were anesthetized with isoflurane. Right middle cerebral artery occlusion (MCAO) was induced in mice using the intraluminal filament technique to mimic focal cerebral ischemic stroke. After 1 hr, reperfusion was allowed by removing the occlusion. Administration of each treatment was performed 0.5 hrs, 2 hrs, or 6 hrs after the infarction. The neurological function score was evaluated at 24 hrs and 48 hrs after reperfusion, as was assessed by beam-walking, grip strength, and rotarod tests. At 48 hrs after reperfusion, the whole brain tissue of all rats was harvested to assess the cerebral infarct area by TTC staining, as well as to measure brain volume and brain water content, two indicators of acute cerebral edema.

[3] = tested on: mouse model of stroke induced by middle cerebral artery occlusion (MCAO); test: Cerebral infarct volume by TTC staining, time of treatment (Example 2); type: in vivo, ICR mice; conditions: 48 h after reperfusion; for Improvement rate of infarction: vs model
Method: as §5

[4] = tested on: rat model of stroke induced by middle cerebral artery occlusion (MCAO); test: Brain water content (Example 3); type: in vivo, SD rats; conditions: 10 mg/kg (table label) i.v. Bid from 30 min after infarction; 48 h after reperfusion
Method: as §1, §2, §3, §4

[5] = tested on: mouse model of stroke induced by middle cerebral artery occlusion (MCAO); test: Grip strength, time of treatment (Example 2); type: in vivo, ICR mice
Method: as §5

[6] = tested on: rat model of stroke induced by middle cerebral artery occlusion (MCAO); test: Brain volume (Example 3); type: in vivo, SD rats; conditions: 10 mg/kg (table label) i.v. Bid from 30 min after infarction; 48 h after reperfusion
Method: as §1, §2, §3, §4

[7] = tested on: mouse model of stroke induced by middle cerebral artery occlusion (MCAO); test: Beam-walking test, time of treatment (Example 2); type: in vivo, ICR mice
Method: as §5

[8] = tested on: mouse model of stroke induced by middle cerebral artery occlusion (MCAO); test: Rotarod test (Example 1); type: in vivo, ICR mice; conditions: 10 mg/kg i.v. Bid from 30 min after infarction
Method: (§6) The administration of the respective treatments was started 30 minutes after the MCAO procedure of the mice.
(§7) Seventy-two (72) ICR mice received behavioral training after adaptive feeding period and before the operation to establish stroke models. The behavioral training included beam-walking and rotarod test. The experimental mice were then randomly divided into 6 groups according to the values of the body weight, with 12 mice in each test group as described in Table 1.
(§8) The mice were fasted overnight before modeling and were anesthetized with isoflurane. Right middle cerebral artery occlusion (MCAO) was induced in mice using the intraluminal filament technique to mimic focal cerebral ischemic stroke. After 1 hr, reperfusion was allowed by removing the occlusion. During the operation, a white light was used to maintain the mouse rectal temperature between 36.5° C.-37.0° C.
(§9) Administration of each treatment was performed 0.5 h after the infarction. The neurological function score was evaluated at 24 hrs and 48 hrs after reperfusion, as was assessed by beam-walking, grip strength, and rotarod tests. At 48 h after reperfusion, the whole brain tissue of all rats was harvested to assess the cerebral infarct area by TTC staining, as well as to measure brain volume and brain water content, two indicators of acute cerebral edema.

[9] = tested on: mouse model of stroke induced by middle cerebral artery occlusion (MCAO); test: Brain volume, time of treatment (Example 2); type: in vivo, ICR mice; conditions: 48 h after reperfusion
Method: as §5

[10] = tested on: mouse model of stroke induced by middle cerebral artery occlusion (MCAO); test: Brain volume (Example 1); type: in vivo, ICR mice; conditions: 10 mg/kg i.v. Bid from 30 min after infarction; 48 h after reperfusion
Method: as §6, §7, §8, §9

[11] = tested on: rat model of stroke induced by middle cerebral artery occlusion (MCAO); test: Rotarod test (Example 3); type: in vivo, SD rats; conditions: 10 mg/kg (table label) i.v. Bid from 30 min after infarction
Method: as §1, §2, §3, §4

[12] = tested on: mouse model of stroke induced by middle cerebral artery occlusion (MCAO); test: Brain water content (Example 1); type: in vivo, ICR mice; conditions: 10 mg/kg i.v. Bid from 30 min after infarction; 48 h after reperfusion
Method: as §6, §7, §8, §9

[13] = 10 mg/kg i.v. once 0.5 hr after infarction, 24 h
[14] = 10 mg/kg i.v. once 0.5 hr after infarction, 48 h
[15] = 10 mg/kg i.v. once 2 hr after infarction, 24 h
[16] = 10 mg/kg i.v. once 2 hr after infarction, 48 h
[17] = 10 mg/kg i.v. once 6 hr after infarction, 24 h
[18] = 10 mg/kg i.v. once 6 hr after infarction, 48 h
[19] = 10 mg/kg i.v. once 0.5 hr after infarction
[20] = 10 mg/kg i.v. once 2 hr after infarction
[21] = 10 mg/kg i.v. once 6 hr after infarction

For CCCCC1OC(=O)c2ccccc21 (stereo not drawn) [Butylphthalide], the “Cerebral Infarction Volume” value [1] was 22.41%, the “Improvement rate of infarction” value ([1]; vs model) was 30.84% and the “Rotarod test score, Time” value [2, 13] was 151.83 s. For the same compound, the “Rotarod test score, Time” value [2, 14] was 193.25 s, the “Rotarod test score, Time” value [2, 15] was 124.67 s and the “Rotarod test score, Time” value [2, 16] was 171.67 s. For the same compound, the “Rotarod test score, Time” value [2, 17] was 121.42 s, the “Rotarod test score, Time” value [2, 18] was 98.00 s and the “Cerebral Infarction Volume” value [3, 19] was 28.56%. The “Improvement rate of infarction” value [3, 19] was 33.50%, the “Cerebral Infarction Volume” value [3, 20] was 34.25% and the “Improvement rate of infarction” value [3, 20] was 20.25%. The “Cerebral Infarction Volume” value [3, 21] was 31.89%, the “Improvement rate of infarction” value [3, 21] was 25.76% and the Brain water content [4] was 1282.00 mg. For the same compound, the Brain water ratio [4] was 78.80%, the “Grip Strength” value [5, 13] was 203.13 ± 35.30 g and the “Grip Strength” value [5, 14] was 196.04 ± 41.72 g. For the same compound, the “Grip Strength” value [5, 15] was 199.41 ± 38.48 g, the “Grip Strength” value [5, 16] was 186.33 ± 44.64 g and the “Grip Strength” value [5, 17] was 187.08 ± 53.81 g. The “Grip Strength” value [5, 18] was 168.16 ± 66.94 g, the Brain volume [6] was 1.597 ± 0.11 mL and the Beam-walking time [7, 13] was 57.69 ± 3.94 s. For the same compound, the Beam-walking time [7, 14] was 51.37 ± 16.46 s, the Beam-walking time [7, 15] was 53.12 ± 12.48 s and the Beam-walking time [7, 16] was 52.73 ± 10.98 s. For the same compound, the Beam-walking time [7, 17] was 10.32 s, the Beam-walking time [7, 18] was 58.57 ± 3.23 s and the “Rotarod test score, Time” value ([8]; 24 h) was 216.67 ± 91.22 s. The “Rotarod test score, Time” value ([8]; 48 h) was 146.50 ± 137.21 s, the Brain volume [9, 19] was 0.403 ± 0.04 mL and the Brain volume [9, 20] was 0.407 ± 0.02 mL. The Brain volume [9, 21] was 0.427 ± 0.03 mL, the Brain volume [10] was 0.413 ± 0.03 mL and the “Rotarod test score, Time” value ([11]; 24 h) was 69.83 s. The “Rotarod test score, Time” value ([11]; 48 h) was 86.42 s, the Brain water content [12] was 329.50 ± 23.60 mg and the Brain water ratio [12] was 81.84 ± 1.30%.
